The values below come from patent publication US20260356823A1, “SODIUM CHANNEL REGULATOR AND USE THEREOF” (SHANGHAI HUILUN PHARMACEUTICAL CO., LTD., priority 2022, published 2026).

One assay deals with T1, Nav1.8 sodium channel (Homo sapiens, UniProt Q9Y5Y9).
T1 construct: expressed in transfected cells
As to the kind of experiment: In vitro inhibition IC50 of Nav1.8, whole-cell patch clamp on CHO cell line stably expressing Nav1.8 (SCN10A, NM_006514). The assay is classed as cell-based. The conditions noted are these: CHO cells stably expressing Nav1.8, whole-cell patch clamp, room temperature. The text has this:
Bioactivity Test 2: In Vitro Inhibition IC50 of Nav1.8 by the Test Compound
A CHO cell line stably expressing the Nav1.8 sodium channel was used for experimental assays with the following gene information: Sodium channel, voltage-gated, type 8, alpha (SCN10A), cDNA strictly similar to GenBank accession number: NM_006514.
Before the patch clamp assay, the cells were detached with 0.25%-Trypsin-EDTA, and 6.5×10^3 cells were spread onto cover slips and cultured in a 24-well plate (final volume: 500 μL) for 18 h. Then, the assay was carried out.
Fluids for electrophysiological recording included: extracellular fluid: K-007-1, 140 mM NaCl, 3.5 mM KCl, 1 mM MgCl2·6H2O, 2 mM CaCl2·2H2O, 10 mM D-Glucose, 10 mM HEPES, 1.25 mM NaH2PO4·2H2O, and NaOH for adjustment to pH=7.4; and intracellular fluid: Nav-001-2, 50 mM CsCl, 10 mM NaCl, 10 mM HEPES, 60 mM CsF, 20 mM EGTA, and […]. The extracellular fluid was stored for 2 weeks. The intracellular fluid was prepared and dispensed as 1 mL per tube, and frozen in a refrigerator at −20° C. Freshly thawed intracellular fluid was used for daily experiments. All intracellular fluids have to be used up within three months. Beyond three months, the old intracellular fluid has to be discarded, and the intracellular fluid needs to be prepared again.
Patch clamp assay: Whole-cell patch-clamp recording Nav1.8 sodium currents under voltage stimulation was carried out as follows: When a whole-cell seal was formed, the cell was clamped at a voltage of −120 mV and maintained for 30 ms. The cell was depolarized from the clamping voltage to 0 mV and maintained for 50 ms. Then, the voltage was restored to −50 mV (for a specific voltage, refer to a half-inactivation voltage from an IV test) and maintained for 5 s. Next, the cell membrane potential was restored to −120 mV and maintained for 20 ms. Then, the cell was depolarized to 0 mV and maintained for 50 ms. Finally, the voltage was restored to the clamping voltage −120 mV and maintained for 30 ms. Data was collected at […]. The effect of the drug on a peak sodium current was observed. Experimental data was collected by an EPC 10 amplifier (HEKA) and stored in PatchMaster (HEKA) software.
A capillary glass tube was pulled into a recording electrode by using a microelectrode puller. The electrode filled with the intracellular fluid was loaded into an electrode holder. A microelectrode manipulator was manipulated under an inverted microscope to immerse the electrode into the extracellular fluid, and an electrode resistance (Rpip) was recorded. The electrode was brought into contact with the cell surface, and suction was applied under negative pressure to form a high-resistance seal (GQ). In this case, fast capacitance compensation was carried out, and negative pressure was then applied to break the cell membrane through suction to form a whole-cell recording mode. Then, slow capacitance compensation was carried out, and experimental parameters such as a membrane capacitance (Cm) and a series resistance (Rs) were recorded. No leakage compensation was carried out.
The drug was administered after the Nav1.8 current obtained by whole-cell recording. The drug acted at each concentration for 5 min (or until the current was stable), and then the drug was tested at a next concentration. Each test compound was tested for multiple concentrations. The cover slips with the cells spread were placed in a recording bath under an inverted microscope. A blank control extracellular fluid and a working solution of the to-be-tested compound were perfused by gravity through the recording bath into the cells from low concentration to high concentration. Fluid exchange was carried out by using a peristaltic pump during the recording. A current detected for each cell in the compound-free extracellular fluid served as its own control. For each concentration, at least three cells were tested independently for three times. […]

For another assay, the target named is T2, human Nav1.8 (Homo sapiens, UniProt Q9Y5Y9).
T2 construct: expressed in transfected cells
Put plainly: In vitro inhibition of Nav1.8, manual patch clamp on HEK293 cells stably expressing human Nav1.8. The conditions noted are these: human Nav1.8, manual patch clamp; for inhibition at 0.1 µM: HEK293, 100 nM, read-out: Inhibitory activity (inhibition/% at 100 nM concentration). The assay is classed as cell-based. The procedure: Bioactivity Test 1: In Vitro Inhibition of Nav1.8 by the Compound
By using a manual patch clamp on HEK293 cells stably expressing human Nav1.8, currents on Nav1.8 before and after administration of the compound were compared after the currents on Nav1.8 were stable, to obtain the effect of the compound on the Nav1.8 channel.
The to-be-tested compound was dissolved in DMSO to prepare a 9 mM stock solution, which was taken and dissolved in extracellular fluid at a desired concentration on the day of testing. The extracellular fluid included the following ingredients (mM): NaCl, 137; KCl, 4; CaCl2, 1.8; MgCl2, 1; HEPES, 10; glucose, 10; and pH 7.4 (NaOH titration). All reagents were purchased from Sigma (St. Louis, MO).
The cells were clamped at −80 mV and depolarized with a sustained 10 ms square wave to 10 mV to obtain a current on Nav1.8. This process was repeated every 5 seconds. A maximum current caused by the square wave was detected. After the current is stable, the to-be-tested compound (dissolved in the extracellular fluid at the desired concentration) was perfused. After the current is stable, the strength of blocking Nav1.8 by the compound was calculated based on the currents before and after perfusion of the compound. pCLAMP 10 (Molecular Devices, Union City, CA) was used. That the current is stable means that the current changes over time within a limited range.
(In general: The patch-clamp technique gives a direct electrical read-out from membranes.)

Usually IC50 stands for the concentration that gives 50% inhibition. Low readings indicate inhibition by little substance, high ones a need for much substance.

Bounds are passed on as bounds.

T1 sequence (Q9Y5Y9 whole entry): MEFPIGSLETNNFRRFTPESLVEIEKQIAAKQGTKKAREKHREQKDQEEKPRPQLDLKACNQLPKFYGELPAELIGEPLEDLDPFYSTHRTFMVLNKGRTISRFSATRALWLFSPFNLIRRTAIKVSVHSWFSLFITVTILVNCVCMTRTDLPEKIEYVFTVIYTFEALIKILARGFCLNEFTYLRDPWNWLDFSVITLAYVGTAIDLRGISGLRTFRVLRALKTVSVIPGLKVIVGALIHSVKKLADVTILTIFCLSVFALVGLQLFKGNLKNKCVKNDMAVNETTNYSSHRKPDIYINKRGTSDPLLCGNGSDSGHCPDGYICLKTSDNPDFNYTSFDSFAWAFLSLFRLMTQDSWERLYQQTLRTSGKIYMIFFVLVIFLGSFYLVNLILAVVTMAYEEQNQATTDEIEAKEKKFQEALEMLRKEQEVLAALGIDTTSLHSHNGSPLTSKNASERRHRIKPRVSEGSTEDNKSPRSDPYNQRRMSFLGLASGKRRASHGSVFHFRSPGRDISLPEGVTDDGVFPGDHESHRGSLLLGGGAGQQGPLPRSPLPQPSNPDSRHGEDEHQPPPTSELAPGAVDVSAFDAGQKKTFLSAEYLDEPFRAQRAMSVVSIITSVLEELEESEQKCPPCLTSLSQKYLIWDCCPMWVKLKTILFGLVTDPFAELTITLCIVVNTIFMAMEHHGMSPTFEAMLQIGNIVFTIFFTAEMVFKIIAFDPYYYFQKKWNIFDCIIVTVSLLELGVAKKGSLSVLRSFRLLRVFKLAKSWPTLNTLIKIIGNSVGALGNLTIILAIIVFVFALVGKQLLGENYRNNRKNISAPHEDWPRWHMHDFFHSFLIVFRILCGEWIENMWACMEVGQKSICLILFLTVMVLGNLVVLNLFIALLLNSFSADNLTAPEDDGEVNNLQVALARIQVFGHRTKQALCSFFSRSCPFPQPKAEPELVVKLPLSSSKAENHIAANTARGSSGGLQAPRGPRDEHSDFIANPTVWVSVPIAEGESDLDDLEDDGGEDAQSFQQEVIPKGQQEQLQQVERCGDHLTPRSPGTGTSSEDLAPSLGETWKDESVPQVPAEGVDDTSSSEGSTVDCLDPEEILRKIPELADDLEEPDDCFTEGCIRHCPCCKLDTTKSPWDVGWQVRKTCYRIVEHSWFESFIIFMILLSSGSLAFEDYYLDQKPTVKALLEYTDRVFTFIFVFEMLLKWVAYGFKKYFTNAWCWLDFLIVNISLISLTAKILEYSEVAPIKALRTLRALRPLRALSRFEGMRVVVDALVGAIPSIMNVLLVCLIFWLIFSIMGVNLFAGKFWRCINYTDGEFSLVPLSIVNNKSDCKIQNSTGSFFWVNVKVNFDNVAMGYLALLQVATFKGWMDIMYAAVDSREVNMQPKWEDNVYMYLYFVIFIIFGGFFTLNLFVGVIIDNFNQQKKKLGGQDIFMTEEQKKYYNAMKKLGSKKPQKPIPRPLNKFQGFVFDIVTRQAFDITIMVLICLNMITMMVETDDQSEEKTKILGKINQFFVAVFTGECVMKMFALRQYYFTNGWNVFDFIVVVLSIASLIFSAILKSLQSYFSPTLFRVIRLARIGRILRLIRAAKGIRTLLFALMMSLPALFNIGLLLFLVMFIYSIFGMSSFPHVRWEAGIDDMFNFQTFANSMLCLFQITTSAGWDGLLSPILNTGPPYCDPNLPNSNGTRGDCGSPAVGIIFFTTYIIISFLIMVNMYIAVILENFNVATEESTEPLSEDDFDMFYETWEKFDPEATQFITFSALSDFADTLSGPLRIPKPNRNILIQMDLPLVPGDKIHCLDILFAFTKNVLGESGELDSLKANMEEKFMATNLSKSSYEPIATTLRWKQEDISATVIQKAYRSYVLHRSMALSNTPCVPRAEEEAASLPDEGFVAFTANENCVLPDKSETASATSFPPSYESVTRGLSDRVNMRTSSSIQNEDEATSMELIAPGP
T2 sequence (Q9Y5Y9 whole entry): as above

Take `COc1c([C@H]2[C@H](C(=O)Nc3ccc4c(c3)C(=O)NCC4)O[C@@](C)(C(F)(F)F)[C@H]2C)ccc(F)c1F` (relative stereo) [Example 6, rel-(2R,3S,4S,5R)-3-(3,4-difluoro-2-methoxyphenyl)-4,5-dimethyl-N-(1-oxo-1,2,3,4-tetrahydroisoquinolin-7-yl)-5-(trifluoromethyl)tetrahydrofuran-2-carboxamide]: it took 0.002 µM to reach half-maximal inhibition against Nav1.8 sodium channel (IC50). Further, the inhibition at 0.1 µM on human Nav1.8 was at least 50%.

As to `COc1c(C2C(C(=O)Nc3ccc(C(N)=O)c(C(N)=O)c3)OC(C)(C(F)(F)F)C2C)ccc(F)c1F` (single isomer, unassigned) [Example 30-2], on Nav1.8 sodium channel, the IC50 is under 0.0005 µM. The “Inhibitory activity (inhibition/% at 100 nM concentration)” value at human Nav1.8 (100 nM, 0.1 µM) is “A (A ≥ 50)”.

With `COc1c([C@H]2[C@H](C(=O)Nc3ccc(F)c(C(N)=O)c3)O[C@]3(C(F)(F)F)CC[C@]23C)ccc(F)c1F` (relative stereo) [Example 85, rel-(1R,3R,4S,5R)—N-(3-carbamoyl-4-fluorophenyl)-4-(3,4-difluoro-2-methoxyphenyl)-5-methyl-1-trifluoromethyl-2-oxabicyclo[3.2.0]heptane-3-carboxamide], the IC50 on Nav1.8 sodium channel was under 0.001 µM. For the same compound, the inhibition at 0.1 µM on human Nav1.8 is at least 50%.

With `COc1c([C@H]2[C@H](C(=O)Nc3ccc4c(c3)NC(=O)C4)O[C@@](C)(C(F)(F)F)[C@H]2C)ccc(F)c1F` (relative stereo) [Example 2], on Nav1.8 sodium channel, the IC50 was determined as 0.067 µM. The inhibition at 0.1 µM at human Nav1.8 was at least 50%.

`CONC(=O)c1cc(NC(=O)[C@@H]2O[C@@](C)(C(F)(F)F)[C@@H](C)[C@H]2c2ccc(F)c(F)c2OC)ccn1` (relative stereo) [Example 21] had an IC50 against Nav1.8 sodium channel of 0.026 µM. For the same compound, at human Nav1.8, the inhibition at 0.1 µM was at least 50%.

Take `COc1c([C@H]2C(C(=O)Nc3ccnc(OC[C@H](O)CO)c3)O[C@]3(C(F)(F)F)CC[C@]23C)ccc(F)c1F` (relative stereo) [Example 96, rel-(1R,3R,4S,5R)-4-(3,4-difluoro-2-methoxyphenyl)-N-(2-(R)-2,3-dihydroxypropoxypyridin-4-yl)-5-methyl-1-trifluoromethyl-2-oxabicyclo[3.2.0]heptane-3-carboxamide]: the inhibition at 0.1 µM on human Nav1.8 is at least 50%.

For the compound `CNS(=O)(=O)c1cc(NC(=O)[C@@H]2O[C@]3(C(F)(F)F)CC[C@]3(C)[C@H]2c2ccc(F)c(F)c2OC)ccn1` (relative stereo) [Example 88, rel-(1R,3R,4S,5R)-4-(3,4-difluoro-2-methoxyphenyl)-5-methyl-N-(2-(N-methylsulfamoyl)pyridin-4-yl)-1-(trifluoromethyl)-2-oxabicyclo[3.2.0]heptane-3-carboxamide], the inhibition at 0.1 µM at human Nav1.8 was at least 50%.

Consider `COc1c([C@H]2[C@H](C(=O)Nc3cc(F)[nH]c(=O)c3)O[C@@](C)(C(F)(F)F)[C@H]2C)ccc(F)c1F` (relative stereo) [Example 24, rel-(2R,3S,4S,5R)-3-(3,4-difluoro-2-methoxyphenyl)-N-(6-fluoro-2-oxo-1H-pyridin-4-yl)-4,5-dimethyl-5-(trifluoromethyl)tetrahydrofuran-2-carboxamide], for which, on human Nav1.8, the inhibition at 0.1 µM is at least 50%.

Regarding `COc1c([C@H]2[C@H](C(=O)Nc3ccc4c(c3)S(=O)(=O)NC4)O[C@@](C)(C(F)(F)F)[C@H]2C)ccc(F)c1F` (relative stereo) [Example 9, rel-(2R,3S,4S,5R)-3-(3,4-difluoro-2-methoxyphenyl)-N-(1,1-dioxo-2,3-dihydrobenzo[d]isothiazol-6-yl)-4,5-dimethyl-5-(trifluoromethyl)tetrahydrofuran-2-carboxamide], at human Nav1.8, the inhibition at 0.1 µM is at least 50%.

For `COc1c([C@H]2[C@H](C(=O)Nc3ccc(=O)[nH]n3)O[C@@](C)(C(F)(F)F)[C@H]2C)ccc(F)c1F` (relative stereo) [Example 27, rel-(2R,3S,4S,5R)-3-(3,4-difluoro-2-methoxyphenyl)-4,5-dimethyl-N-(6-oxo-1H-1,2-dioxine-3-yl)-5-(trifluoromethyl)tetrahydrofuran-2-carboxamide], on human Nav1.8, the inhibition at 0.1 µM is at least 50%.

Regarding `COc1c([C@H]2[C@H](C(=O)Nc3ccnc(C(O)CF)c3)O[C@]3(C(F)(F)F)CC[C@]23C)ccc(F)c1F` (relative stereo) [Example 89, rel-(1R,3R,4S,5R)-4-(3,4-difluoro-2-methoxyphenyl)-N-(2-(2-fluoro-1-hydroxyethyl)pyridin-4-yl)-5-methyl-1-(trifluoromethyl)-2-oxabicyclo[3.2.0]heptane-3-carboxamide], the inhibition at 0.1 µM on human Nav1.8 was at least 50%.

On to `COc1c([C@H]2[C@H](C(=O)Nc3ccc(F)c(S(=O)(=O)Nc4cscn4)c3)O[C@]3(C(F)(F)F)CC[C@]23C)ccc(F)c1F` (relative stereo) [Example 92, rel-(1R,3R,4S,5R)-4-(3,4-difluoro-2-methoxyphenyl)-N-(4-fluoro-3-(N-(thiazol-4-yl)aminosulfonyl)phenyl)-5-methyl-1-trifluoromethyl-2-oxabicyclo[3.2.0]heptane-3-carboxamide], for which the inhibition at 0.1 µM on human Nav1.8 was at least 50%.

With `COc1c([C@H]2[C@H](C(=O)Nc3ccc4o[nH]c(=O)c4c3)O[C@@](C)(C(F)(F)F)[C@H]2C)ccc(F)c1F` (relative stereo) [Example 5, rel-(2R,3S,4S,5R)-3-(3,4-difluoro-2-methoxyphenyl)-4,5-dimethyl-N-(3-oxo-2H-benzo[d]isoxazol-5-yl)-5-(trifluoromethyl)tetrahydrofuran-2-carboxamide], the inhibition at 0.1 µM at human Nav1.8 was at least 50%.

Consider `COc1c(C2C(C(=O)Nc3ccc(C(N)=O)c(C(N)=O)c3)OC(C)(C(F)(F)F)C2C)ccc(F)c1F` (single isomer, unassigned) [Example 30-1], for which the inhibition at 0.1 µM on human Nav1.8 is under 50%.

As to `COc1c([C@H]2[C@H](C(=O)Nc3ccc(C(O)CO)nc3)O[C@]3(C(F)(F)F)CC[C@]23C)ccc(F)c1F` (relative stereo) [Example 98, rel-(1R,3R,4S,5R)-4-(3,4-difluoro-2-methoxyphenyl)-N-(6-(1,2-dihydroxyethyl)pyridin-3-yl)-5-methyl-1-trifluoromethyl-2-oxabicyclo[3.2.0]heptane-3-carboxamide], the inhibition at 0.1 µM on human Nav1.8 was at least 50%.

On to `COc1c([C@H]2[C@H](C(=O)Nc3ccc(C(N)=O)nc3)O[C@]3(C(F)(F)F)CC[C@]23C)ccc(F)c1F` [Example 97, 5-((1S,3R,4S,5S)-4-(3,4-difluoro-2-methoxyphenyl)-5-methyl-1-(trifluoromethyl)-2-oxabicyclo[3.2.0]heptane-3-formylamino)pyridinecarboxamide], for which the inhibition at 0.1 µM on human Nav1.8 is at least 50%.

`COc1c([C@H]2[C@H](C(=O)Nc3ccnc4c(N)nccc34)O[C@@](C)(C(F)(F)F)[C@H]2C)ccc(F)c1F` [Example 7]: on human Nav1.8, the inhibition at 0.1 µM was at least 50%.
